Laboratory results published in patent publication US20100203576A1, “PROCESS FOR DETERMINATION OF MICROORGANISMS' RESISTANCE TO ANTIBIOTICS” (INTELLIGENCE ARTIFICIELLE APPLICATIONS, priority 2009, published 2010).

System: Escherichia coli
Assay: Antibiogram resistance of similar Escherichia coli strains recorded in the data base
Format: cell-based
Set-up: key to Resistance, MO list in data base 1 / Resistance, MO list in data base 2 / Resistance, MO list in data base 3 / Resistance, MO list in data base 4: R: significant resistance; I: average resistance; S: without resistance
Settings: for Resistance, MO list in data base 1: Escherichia coli strain 1, similarity 98.5%; for Resistance, MO list in data base 2: Escherichia coli strain 2, similarity 97.8%; for Resistance, MO list in data base 4: Escherichia coli strain 4, similarity 83.6%; for Resistance of Escherichia coli species 1 to 4 (in words): Escherichia coli species 1 to 4, similar between 98.5 to 83.6% to the urine specimen strain; for Resistance, MO list in data base 3: Escherichia coli strain 3, similarity 84.2%

Compound	Resistance, MO list in data base 1	Resistance, MO list in data base 2	Resistance, MO list in data base 4	Resistance of Escherichia coli species 1 to 4 (in words)	Resistance, MO list in data base 3
O=C(O)c1cn(C2CC2)c2cc(N3CCNCC3)c(F)cc2c1=O [CIPROFLOXACIN]	R	R	I		
CC(=O)OCC1=C(C(=O)O)N2C(=O)[C@@H](NC(=O)Cc3cccs3)[C@H]2SC1 [CEPHALOTIN, cefalotin]	R	R	R	resistant	R
gentamicin	S	S	S	not resistant	S
CC1(C)S[C@@H]2[C@H](NC(=O)[C@H](N)c3ccc(O)cc3)C(=O)N2[C@H]1C(=O)O [AMOXICILLIN, amoxicillin]	R	R	R	resistant	R
CO/N=C(\C(=O)N[C@@H]1C(=O)N2C(C(=O)O)=C(CSc3nc(=O)c(O)nn3C)CS[C@H]12)c1csc(N)n1 [CETRIAXONE, cetriaxone]	S	S	S	not resistant	S
CCN1CCN(C(=O)N[C@@H](C(=O)N[C@@H]2C(=O)N3[C@@H]2SC(C)(C)[C@@H]3C(=O)O)c2ccccc2)C(=O)C1=O [PIPERACILLIN, piperacillin]	R	R	R	resistant	R
